Data: US20250042884A1, “3-ARYLOXYL-3-FIVE-MEMBERED HETEROARYL PROPYLAMINE COMPOUND AND USE THEREOF” (Shanghai Leado Pharmatech Co. Ltd., priority 2018, published 2025)

Assays:
HepG-2 cells = assay: Cytotoxicity test (CCK-8), hepatotoxicity; type: cell-based; details: HepG2 cell, 72 h
Description: (§1) In this example, hepatotoxicity and neurotoxicity of compound I-1 and S-duloxetine were detected.
(§2) HepG-2 and SH-SY5Y cells were placed in 10 cm dish and cultured at 37° C., 5% CO2 in a cell incubator. Trypsin was used to digest and resuspend cells and cells were counted. The cells were transferred to 96-well plate with 8000 cells in a well (100 μl/well), cultured at 37° C., 5% CO2 in a cell incubator for 24 hrs. A serial of gradient concentration dilutions of compound I-1 (prepared in example 2 of the present invention) with 2-fold dilution were prepared, and the system was 100 μL/well. The supernatant of cell culture system in the 96-well plate was removed on the first day, and fresh-prepared drug concentration system was add into culture plate wells (duplicate wells were set). The cells were cultured at 37° C., 5% CO2 in a cell incubator for 72 h. […] Microplate reader was used to measure the absorbance at 450 nm. Data was processed to calculate cytotoxicity, and IC50 was calculated by GraphPad Prism. […]
(§3) A (Dosing): the absorbance of wells containing cells, CCK-8 solution and drug solution.
(§4) A (control): the absorbance of wells containing medium and CCK-8 solution and without cells.
(§5) A (0 Dosing): the absorbance of wells containing cells and CCK-8 solution but without drug solution […]

SH-SY5Y cells = assay: Cytotoxicity test (CCK-8), neurotoxicity; type: cell-based; details: 72 h
Description: as §1, §2, §3, §4, §5

C57BL/6 mice = assay: Mice formalin pain model (acute and inflammatory pain); type: in vivo; details: for Licking claw time (s) in phase II (10-60 min): hydrochloride salt, blank vehicle 349.55 ± 43.09
Source text: 150 C57BL/6 mice (male, 9-week aged) were randomly divided into 15 groups, (each group had 10 mice) for the analgesic activity test of 3 compounds in the mice formalin pain model respectively: the compound I-1 group (compound I-1 prepared in Example 2 whose hydrochloride salt was used in the experiment), the S-duloxetine group (its hydrochloride salt was used in the experiment) and the compound C1 group (the compound C1 prepared in Comparative Example 1, whose hydrochloride salt was used in the experiment). Before the start of experiments, the mice were allowed to adapt to the experimental environment for 72 h with free feeding and drinking water. The test drugs were administrated by intraperitoneal injection at a dosage as follows:
Compound I-1 group: blank vehicle (blank saline control), 0.1 mg/kg, 0.5 mg/kg, 1 mg/kg, 5 mg/kg and 10 mg/kg;
S-duloxetine group: blank vehicle (blank saline control), 1 mg/kg, 5 mg/kg, 10 mg/kg and 20 mg/kg;
Compound C1 group: blank vehicle (blank saline control), 0.1 mg/kg, 0.5 mg/kg, 1 mg/kg, 5 mg/kg and 10 mg/kg.
After administration, the mice were placed in a transparent, ventilated plexiglass cylinder for 1 h, and then 20 μl of 4% formalin solution was injected into the left hind plantar of mice of each group by microinjector, claw pain response in mice were real-time recorded by a mini-camera. The time length of licking left claw were used as an indicator of pain response, licking time in 0-10 min (phase I) and 10-60 min (phase II) were observed and recorded, and the statistical analysis was conducted. The half effective dose (ED50) of 3 compounds were calculated: ED50 referred to the dose of the drug which decreased licking time by half as compared with the blank control group. The smaller the ED50 value was, the lower the effective analgesic dose of the compound was and the better the analgesic effect was.

Sprague-Dawley rats = assay: Rat hot plate pain model (acute pain); type: in vivo; details: 30 mg/kg intraperitoneal, hydrochloride salt
Description: Sprague-Dawley male, mature and unmated rats were placed at hot and cold plate (product model: PE34, US IITC) with constant 53±0.1° C. Mice with painful response such as licking claw, shaking claw or slightly jumping within 10-30 s were selected, and mice which evaded and jumped were abandoned. […] The test compound was freshly prepared on the day of administration. 0.9% NaCl physiological saline solution was prepared as solvent for later use. Appropriate amount of test compound was added into required volume of physiological saline and fully suspended, and the concentration of prepared drug was 1 mg/ml. […] After administration, the latency of heat pain was measured at 0.5 h, 1 h and 2 h after administration. In order to prevent animals from being scalded on the hot plate, the maximum incubation time was set to 30 s. Maximum possible effect (MPE) % was used to evaluate analgesic effect of each compound, i.e., MPE %=[(Post drug latency−baseline latency)/(30−baseline latency)]×100. MPE % at different time points was recorded.

ICR mice = assay: Mice acetic acid writhing pain model (visceral and inflammatory pain); type: in vivo; details: 1 h before acetic acid, saline group 49 times
Description: Male ICR mice, 22-25 g, were fasted but allowed to drink water freely for 2 h before administration. All ICR mice were weighed and grouped randomly, each group had >10 animals. […] The drug was administrated by gavage based on the weight of mice. 1.5% acetic acid solution (0.1 ml/10 g) was injected intraperitoneally 1 h after administration, and the number of times of visceral pain in each group was observed within 30 min. When concave abdomen, stretched trunk and hind claw, and high buttocks appeared, one number point was recorded. Finally, the number of appearance of the above phenomenon was counted within 30 minutes.

SD rats = assay: Rat SNL model, mechanical allodynia test (nerve pain); type: in vivo; details: 1 h after administration, 10 mg/kg oral, hydrochloride salt; control group 3.967 ± 0.775
Description: Male SPF grade SD rats, weighed 150 g-180 g, were selected. Aseptic operation during surgery was performed. The animals were anesthetized with sodium pentobarbital (50 mg/kg, intraperitoneal injection). The surgical area of animal waist was shaved and the skin was disinfected three times with iodophor and 70% ethanol. After the skin was dried, the operation was started. Surgical knife was used to make a longitudinal incision at the back of the sacrum of the animal waist to expose the left paraspinal muscles, and stretcher was used to separate muscle tissue to expose the spine. The left spinal nerves L5 and L6 were separated and ligated with a 6-0 silk thread, and the wound was sutured. After the operation, the animals were placed on electrothermal pad, and 5 mL of saline was injected subcutaneously to prevent dehydration. After the animals were fully awakened and could move around freely, the animals were put back in the cage.
After the operation, the animals were adapted in the experimental environment for 15min/day for 3 days.
The animals were weighed to calculate the dose. […] After administration, mechanical allodynia test was performed. The rat was individually placed in a plexiglass box with a grid on the bottom of the box to ensure that the rat claw could be tested. The rats were allowed to adapt the environment for 15 min before test. After the adaptation was completed, the test fiber was used to test the center of the left hind claw of the rat. The test fiber comprises 8 test strengths: 3.61 (0.4 g), 3.84 (0.6 g), 4.08 (1 g), 4.31 (2 g), 4.56 (4 g), 4.74 (6 g), 4.93 (8 g), and 5.18 (15 g). […] During the test, rapid withdrawal of animal claw was recorded as pain response. When the test fiber was removed from animal skin, the withdrawal of animal claw was also recorded as pain response. If animal moved, the pain response was not recorded, and the test was repeated. […]
Mechanical allodynia was expressed as withdrawal threshold (PWT) in rat behavioral test, which was calculated with the following formula: […]

CNCC[C@H](Oc1cccc2ccccc12)c1cccs1 [S-duloxetine]
IC50 (HepG-2 cells): 33.3 µM
IC50 (SH-SY5Y cells): 28.6 µM
Licking claw time (s) in phase II (10-60 min) (C57BL/6 mice; 1 mg/kg intraperitoneal): 259.97 ± 64.44 s
Licking claw time (s) in phase II (10-60 min) (C57BL/6 mice; 5 mg/kg intraperitoneal): 230.49 ± 41.31 s
Licking claw time (s) in phase II (10-60 min) (C57BL/6 mice; 10 mg/kg intraperitoneal): 162.83 ± 36.27 s
Licking claw time (s) in phase II (10-60 min) (C57BL/6 mice; 20 mg/kg intraperitoneal): 72.27 ± 17.29 s
ED50 in phase II pain (C57BL/6 mice; intraperitoneal, dose that decreases licking time by half vs blank control): 8.00 mg/kg
MPE % (Sprague-Dawley rats; 0.5 h after administration): 5.75 ± 5.74%
MPE % (Sprague-Dawley rats; 1 h after administration): 7.44 ± 5.12%
MPE % (Sprague-Dawley rats; 2 h after administration): 13.53 ± 4.99%
number of appearance of writhing reactions (visceral pain) within 30 min (ICR mice; 10 mg/kg by gavage): 27 times
number of appearance of writhing reactions (visceral pain) within 30 min (ICR mice; 20 mg/kg by gavage): 21 times
PWT(g), claw withdrawal threshold (SD rats): 6.519 ± 2.226 g
